Data on 3 compounds can be found in ChEMBL document CHEMBL3217714, “Synthesis and anti HSV-1 evaluation of novel indole-3,4-diones” (Medchemcomm, 2011).

SMILES strings stand for the structures. The source made the active and inactive calls. The rule behind the calls is not given here.

For data set [1], the system named is Vero. Briefly: Cytotoxicity against African green monkey Vero cells at 1 to 100 uM compound in DMSO by trypan blue exclusion assay. The format is cell-based. The conditions noted are these: chlorocebus sabaeus.
For data set [2], the system named is Vero. Description: Cytotoxicity against African green monkey Vero cells at 40 to 100 uM compound in water by trypan blue exclusion assay. The format is cell-based. The conditions noted are these: chlorocebus sabaeus.
Data set [3] has as its system Human alphaherpesvirus 1. Description: Antiviral activity against HSV-1 infected in African green monkey Vero cells at 10 to 100 uM by plaque reduction assay. The format is functional, organism-based. For orientation: Plaque reduction counts the foci of infection that form in a cell layer.
In data set [4] the test system is Human alphaherpesvirus 1. Description: Antiviral activity against HSV-1 infected in African green monkey Vero cells assessed as reduction in plaque formation at 10 to 100 uM by inverted microscopy. The format is functional, organism-based.

Take `CC1N=C2CCCC(=O)C2C1=O` (stereo not given): the Activity result in the data set on Vero [1] and in the data set on Vero [2] was “Non-toxic” each time. Moreover, the inhibition result in the data set with Human alphaherpesvirus 1 [3] was “Dose-dependent effect”.
For `CC1N=C2CC(C)(C)CC(=O)C2C1=O` (stereo not given), the Activity result in the data set with Vero [1] and with Vero [2] was “Non-toxic” throughout. The inhibition entry in the data set with Human alphaherpesvirus 1 [3] is “Dose-dependent effect”.
Turning to `CC1CC(=O)C2C(=O)C(C)N=C2C1` (stereo not given), the Activity entry in the data set on Vero [1] and in the data set on Vero [2] was “Non-toxic” throughout. Besides, the outcome with Human alphaherpesvirus 1 [4] was Active. In the data set with Human alphaherpesvirus 1 [3], the inhibition entry is “Dose-dependent effect”.
